Experiments:
[1] = system: cell fusion of Sf21 cells infected with CS-WT viruses (CHIKV); assay: Cell fusion assay, Sf21 cells infected with recombinant baculovirus CS-WT; conditions: for inhibition of cell fusion induced by CS-WT infection, primary screening: Sf21 cells, screening of drug library, antiviral agents and synthetic peptides, data not shown; for inhibition of cell fusion in CS-WT infected Sf21 cells: 5 mg/mL, 2 hours, pH 5.8, FIG. 11; for inhibition of the membrane fusion of Chikungunya viruses (summary of screening result): bicistronic baculovirus expression system in Sf21 cells
CHIKV [2] = assay: Immunofluorescence assay of CHIKV infection in BHK-21 cells; assay type: cell-based, Chikungunya virus
BHK-21 cells = assay: Cytotoxicity assay (crystal violet); assay type: cell-based; conditions: 1,000 μg/ml, BHK-21, 2 days, crystal violet OD 540, FIG. 18 left panel
Description: 10^5 BHK-21 cells per well of 96-well plate were cultured with 2% FCS DMEM. For cykotoxicity assay, cells were cultured in the presence or absence of drug at various concentrations in duplication for 2 days. For cell protection assay, cells were infected with CHIKV at moi of 0.05 in the presence or absence of drugs at various concentrations in duplication for 2 days. Cells were then stained with 0.1% crystal violet solution to observe clearance of the cell monolayer caused by the cytotoxic or cytopathic effect. Crystal violet was quantified by optical density (OD) 540.

CHIKV [3] = assay: Cell protection assay against CHIKV infection (crystal violet); assay type: cell-based, Chikungunya virus; conditions: BHK-21, moi 0.05, 2 days, FIG. 18
CHIKV [4] = assay: Western blot of CHIKV structural protein production in BHK-21 cells; conditions: FIG. 14
[5] = system: cell fusion of Sf21 cells infected with VS-TC83 (VEEV-TC83) viruses; assay type: cell-based, Venezuelan equine encephalitis virus; conditions: for inhibition of fusion (fusion index) of Sf21 cells infected with VS-TC83 viruses: pH 5.8
VEEV-TC83 = assay type: cell-based, Venezuelan equine encephalitis virus

With `O=C1[C@H](CC[C@H](O)c2ccc(F)cc2)[C@@H](c2ccc(O)cc2)N1c1ccc(F)cc1` [ezetimibe] the “inhibition of cell fusion induced by CS-WT infection, primary screening” value (“inhibition … primary screening” below) [1] was “failed to inhibit the cell fusion”.

With `NC(=O)c1ncn([C@@H]2O[C@H](CO)[C@@H](O)[C@H]2O)n1` [ribavirin] the “inhibition of CHIKV infection in vitro (E2 immunofluorescence), comparison with suramin” value (CHIKV [2]; 12.5 μg/ml, BHK-21, M.O.I. 1, 20 hours, FIG. 15) was “inhibition efficacy of suramin is higher than that of ribavirin”.

`Cc1ccc(C(=O)Nc2ccc(S(=O)(=O)O)c3cc(S(=O)(=O)O)cc(S(=O)(=O)O)c23)cc1NC(=O)c1cccc(NC(=O)Nc2cccc(C(=O)Nc3cc(C(=O)Nc4ccc(S(=O)(=O)O)c5cc(S(=O)(=O)O)cc(S(=O)(=O)O)c45)ccc3C)c2)c1` [suramin] was tested, and the “inhibitory effect on cell fusion (fusion index)” value ([1]; 55 μM, FIG. 13) was “minimal”, the “inhibition of cell fusion in CS-WT infected Sf21 cells” value [1] was “remarkably inhibited the cell fusion” and the “inhibitory efficacy on cell fusion (fusion index), dose dependence” value ([1]; 3,500, 875, 219 or 55 μM, FIG. 12/13) was “inhibitory efficacy of suramin increases as the concentration of suramin increases”. For the same compound, the “inhibition … primary screening” value [1] was “substantially inhibited the cell fusion”, the “inhibition of the membrane fusion of Chikungunya viruses (summary of screening result)” value [1] was “block the membrane fusion” and the cytotoxicity (BHK-21 cells) was “minimal cytotoxicity”. The “concentrations at which the cells are significantly protected from CHIKV infection” value (CHIKV [3]) was 15.6-1,000 μg/ml, the “protection from the cytopathic effect of CHIKV infection” value (CHIKV [3]) was “protects BHK-21 cells from the cytopathic effect” and the “inhibitory effect on the production of the structural proteins of CHIKV” value (CHIKV [4]; 44 μM, BHK-21 cells) was “only marginal inhibitory effect”. For the same compound, the “inhibitory effect on the production of the structural proteins of CHIKV, dose dependence” value (CHIKV [4]; BHK-21 cells, 10,000 PFU CHIKV, 20 hours) was “dose-dependency of the inhibitory effect”, the “inhibition of CHIKV infection in vitro (E2 immunofluorescence)” value (CHIKV [2]; 175 μM (2.5 mg/mL), BHK-21, M.O.I. 1, 20 hours, FIG. 15) was “inhibit CHIKV infection in vitro” and the “time-of-addition: stage in which the inhibition activity takes place” value (CHIKV [2]; 5 mg/mL (350 μM), immunofluorescence, FIG. 17 panels A-C) was 0-2 hours post infection. For the same compound, the “time-of-addition: inhibitory effect on addition at a later stage” value (CHIKV [2]; 5 mg/mL (350 μM), immunofluorescence, FIG. 17 panels D-F) was “almost no inhibitory effect”, the “in vitro inhibition efficacy against CHIKV, dose dependence” value (CHIKV [2]; BHK-21, 2,000 PFU CHIKV, 20 hours, FIG. 16) was “increases as the concentration of suramin increases” and the “in vitro inhibitory effect against CHIKV” value (CHIKV [2]; dose of less than 44 μM, FIG. 16 panel D) was “marginal inhibitory effect”.

For carrageenan, the “inhibition … primary screening” value [1] was “failed to inhibit the cell fusion”.

For chondroitin sulfate, the “inhibition of cell fusion in CS-WT infected Sf21 cells” value [1] was “did not substantially inhibit the cell fusion”.

dextran sulfate was tested, and the “inhibition of the membrane fusion of Chikungunya viruses (summary of screening result)” value [1] was “not effective to inhibit the membrane fusion”, the “inhibition of cell fusion induced by VS-TC83 virus, dose dependence” value [5] was “inhibit the cell fusion induced by VS-TC83 virus in a dose-dependent manner” and the “inhibition of the membrane fusion of Venezuelan equine encephalitis virus (summary of screening result)” value [5] was “can inhibit the membrane fusion”. The “inhibition of fusion (fusion index) of Sf21 cells infected with VS-TC83 viruses” value [5] was “substantially inhibit the fusion” and the “inhibition of VEEV-TC83 infection” value (VEEV-TC83) was “elicited dose-dependent inhibition”.

In the case of heparin, the “inhibition of the membrane fusion of Chikungunya viruses (summary of screening result)” value [1] is reported as “not effective to inhibit the membrane fusion”, the “inhibition of cell fusion induced by VS-TC83 virus, dose dependence” value [5] is reported as “inhibit the cell fusion induced by VS-TC83 virus in a dose-dependent manner” and the “inhibition of the membrane fusion of Venezuelan equine encephalitis virus (summary of screening result)” value [5] is reported as “can inhibit the membrane fusion”. The “inhibition of fusion (fusion index) of Sf21 cells infected with VS-TC83 viruses” value [5] was “substantially inhibit the fusion” and the “inhibition of VEEV-TC83 infection” value (VEEV-TC83) was “elicited dose-dependent inhibition”.

From patent US9381175B2, “Method for treating Chikungunya virus infection” (priority 2014, dated 2016)
